Assay results: article PMC5640605, “Fructose-1,6-bisphosphate couples glycolytic flux to activation of Ras” (Nature Communications, 2017)

Target: T1, Sos1 (Homo sapiens, UniProt Q07889)
T1 construct: catalytic part of Sos1 (residues 564–1049)
T1 sequence (Q07889 564-1049): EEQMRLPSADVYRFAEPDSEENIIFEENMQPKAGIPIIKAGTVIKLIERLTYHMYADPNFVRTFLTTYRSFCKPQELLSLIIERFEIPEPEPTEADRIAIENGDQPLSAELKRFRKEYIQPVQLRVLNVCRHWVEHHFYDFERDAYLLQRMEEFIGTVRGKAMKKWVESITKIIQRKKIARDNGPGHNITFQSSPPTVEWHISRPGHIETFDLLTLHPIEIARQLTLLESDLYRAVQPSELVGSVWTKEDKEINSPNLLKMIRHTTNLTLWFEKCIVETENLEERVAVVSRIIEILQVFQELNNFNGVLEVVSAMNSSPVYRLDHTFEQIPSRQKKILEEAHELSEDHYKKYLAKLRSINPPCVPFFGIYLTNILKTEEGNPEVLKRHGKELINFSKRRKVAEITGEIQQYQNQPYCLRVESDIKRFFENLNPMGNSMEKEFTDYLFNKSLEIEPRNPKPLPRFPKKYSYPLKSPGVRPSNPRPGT
Experiment: fluorescence-based thermal shift assay (SYPRO Orange) with Langmuir Kd fit; supported by BLI of Sos1/H-Ras complex dissociation (KDapp […])
Assay type: binding

`O=P(O)(O)OC[C@H]1OC(O)(COP(=O)(O)O)[C@@H](O)[C@@H]1O` (stereo partly shown) [Fru1,6bisP] was tested, and the Kd was 17.5 ± 2.2 mM.
